Reference: ChEMBL document CHEMBL4020789, “Development of 5-hydroxypyrazole derivatives as reversible inhibitors of lysine specific demethylase 1” (Bioorg Med Chem Lett, 2017)
pIC50: −log10 of the molar value.

Columns and labels:
[1] = biological target: Voltage-gated inwardly rectifying potassium channel KCNH2 (Homo sapiens, UniProt Q12809); assay: Inhibition of human ERG by patch clamp assay
[2] = Intrinsic clearance in human microsomes assessed […]; assay type: ADME, Microsome
[3] = Apparent permeability of the compound across apical side to basolateral side in human Caco2 cells; assay type: ADME, cell-based; conditions: Caco-2
[4] = Half life in human microsomes; assay type: ADME, Microsome
[5] = system: Mus musculus; assay: AUC in iv dosed mouse; assay type: ADME, organism-based; conditions: in vivo
[6] = Oral bioavailability in mouse; assay type: ADME, organism-based; conditions: in vivo
[7] = Fraction unbound in mouse; assay type: ADME, organism-based; conditions: in vivo
[8] = Clearance in mouse; assay type: ADME, organism-based; conditions: in vivo
[9] = Half life in mouse hepatocytes; assay type: ADME, cell-based, Hepatocyte
[10] = Half life in iv dosed mouse; assay type: ADME, organism-based; conditions: in vivo
[11] = Volume of distribution in mouse; assay type: ADME, organism-based; conditions: in vivo
[12] = Half life in po dosed mouse; assay type: ADME, organism-based; conditions: in vivo

Sequence of Voltage-gated inwardly rectifying potassium channel KCNH2 (Q12809 whole entry): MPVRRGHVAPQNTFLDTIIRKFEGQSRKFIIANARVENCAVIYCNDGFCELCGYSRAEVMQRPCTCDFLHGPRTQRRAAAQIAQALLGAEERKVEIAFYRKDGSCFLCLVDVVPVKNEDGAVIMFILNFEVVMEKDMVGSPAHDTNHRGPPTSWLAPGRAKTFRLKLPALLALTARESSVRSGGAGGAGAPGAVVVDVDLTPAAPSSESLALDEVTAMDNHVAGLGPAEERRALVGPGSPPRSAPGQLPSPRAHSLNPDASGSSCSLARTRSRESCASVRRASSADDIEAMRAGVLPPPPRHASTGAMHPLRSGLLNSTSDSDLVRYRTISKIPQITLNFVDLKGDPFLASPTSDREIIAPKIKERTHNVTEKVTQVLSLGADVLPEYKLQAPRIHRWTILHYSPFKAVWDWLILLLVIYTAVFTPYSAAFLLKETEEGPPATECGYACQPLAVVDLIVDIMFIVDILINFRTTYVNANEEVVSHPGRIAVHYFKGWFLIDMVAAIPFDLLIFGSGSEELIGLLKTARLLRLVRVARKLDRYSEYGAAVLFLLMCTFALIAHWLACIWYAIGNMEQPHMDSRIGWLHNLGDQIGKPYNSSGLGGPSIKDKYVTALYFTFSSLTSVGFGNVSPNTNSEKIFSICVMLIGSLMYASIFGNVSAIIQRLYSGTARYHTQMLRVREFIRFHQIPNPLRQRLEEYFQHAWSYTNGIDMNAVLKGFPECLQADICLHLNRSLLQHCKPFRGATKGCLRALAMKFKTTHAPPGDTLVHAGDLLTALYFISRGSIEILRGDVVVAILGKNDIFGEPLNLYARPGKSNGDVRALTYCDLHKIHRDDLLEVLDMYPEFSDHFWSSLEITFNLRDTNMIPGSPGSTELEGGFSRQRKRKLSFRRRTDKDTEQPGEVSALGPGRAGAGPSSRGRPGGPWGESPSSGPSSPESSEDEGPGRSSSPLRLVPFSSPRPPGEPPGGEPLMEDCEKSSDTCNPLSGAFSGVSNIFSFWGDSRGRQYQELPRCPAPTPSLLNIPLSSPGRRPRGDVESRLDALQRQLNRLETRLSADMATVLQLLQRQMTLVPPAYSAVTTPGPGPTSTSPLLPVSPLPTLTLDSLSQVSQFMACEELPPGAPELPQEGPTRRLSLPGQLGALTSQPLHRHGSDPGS

CL [2] [µL/min]	Papp A→B [3] [×10⁻⁶ cm/s]	half-life [4] [min]	AUC [5] [µg/h/mL]	bioavailability [6] [%]	fraction unbound [7]	clearance [8] [mL/min/kg]	half-life [9] [min]	half-life [10] [min]	Vd [11] [L/kg]	half-life [12] [min]	SMILES	pIC50 [1]
–	–	–	–	–	–	–	–	–	–	–	Cc1ccc(-c2ncc(OC[C@H]3CCNC3)cc2-c2ccc(C#N)cc2)cc1	5.52
5.6	< 0.1	250	–	–	–	–	–	–	–	–	N#Cc1ccc(-n2nc(C(=O)N3CCC[C@@H](N)C3)cc2OCC(O)C(F)(F)F)cc1 (some centres undefined)	–
5.6	0.415	250	0.405	38	0.19	45.7	121	54	3.1	78	CCc1cc(COc2cc(C(=O)N3CCC[C@@H](N)C3)nn2-c2ccc(C#N)cc2)on1	–
6.91	0.73	201	–	–	–	–	68	–	–	–	Cc1cc(COc2cc(C(=O)N3CCC[C@@H](N)C3)nn2-c2ccc(C#N)cc2)on1	–
